Test results from paper PMC7707092, “Discovery and characterization of ORM‐11372, a novel inhibitor of the sodium‐calcium exchanger with positive inotropic activity” (British Journal of Pharmacology, 2020).
pIC50: −log10 of the molar value.

Columns and labels:
[1] = tested on: healthy rats; assay: In vivo haemodynamics in healthy rats (supplement); parameters: species or system rat
Description: In vivo haemodynamics in healthy rats
Experimental Animals and General Study Protocol
Rat was selected to the study as it is the most widely used rodent species in the toxicology studies performed for the small molecules during the drug development. […]
All animal experiments were made according to European Community Guidelines for the use of experimental animals and approved by Finnish National Animal Experiment Board. All studies complied with the ARRIVE guidelines, (NC3Rs Reporting Guidelines Working Group, 2010).
Specific pathogen free animals were housed in half -barrier rooms where special protecting clothing for personnel was required. Animal rooms were cleaned regularly 3 times per week and cages and bottles were […]
changed regular intervals once a week. Temperature was maintained at 22 ± 2°C and humidity at 55 ± 15%.
Light-dark cycle was lights on from 06.00 to 20.00h.
Male Sprague-Dawley rats (Harlan, Netherlands B.V.) were housed in polycarbonate cages (Makrolon® IV with stainless steel wire mesh lids). Maximally 5 rats were housed per cage with aspen chip bedding (Tapvei Ky, Kaavi, Finland). Rats had free access to water (twice filtered, Espoon Vesi) and rodent diet (SDS RM1
(P) SQC pelleted diet, Special Diet Services Ltd, Witham, England). Acclimation period before experiments was at least 5 days. Healthy 10-12 weeks aged weighing 300-400 g rats were randomized to ORM-11372, dobutamine or vehicle group.
At the end of the haemodynamic experiments, rats were terminated with an overdose of pentobarbital.
Anesthesia and ventilation
Rats were anaesthetised with isoflurane (2.25-2.5 %, Baxter) in carbogen (95 % O2 and 5 % CO2) and nitrous oxide (1:1) using a small rodent ventilator (Ugo Basile 7025, ~10 ml/kg, 60 strokes/min). The rats were infused with 0.9 % NaCl in […] at the stabilization and baseline level. Animals were placed on a heating table (+38°C). Tracheas were cannulated.
Systemic blood (SP) and left ventricular pressures (LVP) were measured with pressure transducers (BP:
Isotec, Hugo Sachs Elektronic, Germany; LVP: Mikro-Tip transducer SPR-249, Millar Instruments, USA). The signal was amplified (DC-bridge amplifier type 660, Hugo Sachs Elektronik, Germany), digitised (I/O connector block type SCB-68, National Instruments, USA), recorded and analysed (IHME 1.0.9, Fision Ltd, Finland). Left ventricular inotropic effect (LV +dP/dtmax) and relaxation (LV -dP/dtmin) and heart rate (HR) were analysed from LVP signal.
Blood sampling for the evaluation of plasma levels of the drug
At the end of each infusion, the blood samples (300-500 µl) were taken into chilled EDTA polypropylene tube (CapiJect®, Terumo) and centrifuged (4000 rpm, 10 min, at 4°C). Plasma was immediately frozen in polypropylene tubes and stored at –20°C. ORM-11372 and dobutamine were extracted from plasma samples using a liquid–liquid extraction and analysed using liquid chromatography–tandem mass spectrometry (Agilent Technologies series 1100 liquid chromatographic system and a Sciex LC-MS/MS API 4000 mass spectrometry). The lower limit of quantification for total plasma concentrations were 32.0 and 5.00 ng/ml from total for ORM-11372 and dobutamine, respectively. […]
The effects of dobutamine on blood pressure varies partially due to the use of racemate as active ingredient in the pharmaceutical formulation. (-)-dobutamine is α1-agonist and therefore causes increases in cardiac output and peripheral resistance. (+)-dobutamine acts via β1- and β2-adrenoceptors which leads to increase in heart rate and reduction in blood pressure 16.
Figure S20 Haemodynamics in healthy rats
Effects of ORM-11372 and dobutamine on haemodynamics in isoflurane anesthetized 10-12 weeks aged male Sprague-Dawley rats (Harlan, Netherlands B.V.) weighing 300-400 g. Shown are mean ± SEM and individual effects on the left ventricular contractility (LV+dP/dtmax, panel A), relaxation (LV-dP/dtmax, panel B), heart rate (panel C), and systolic arterial blood pressure (SAP, paned D). […]

[2] = molecular target: T1, noradrenaline transporter (Rattus norvegicus, UniProt Q9WTR4); assay: [^3H]noradrenaline uptake into rat hypothalamus synaptosomes; format: biochemical
T1 construct: [^3H]noradrenaline incorporated into rat hypothalamus synaptosomes; from tissue; host or cells: rat hypothalamus synaptosomes
Protocol: Radioligand binding assays were performed at Eurofins Cerep SA (Celle L'Evescault, France), for testing the inhibition capacity of ORM‐11372 (at 10 μM with two replicates), in over 75 targets. These included receptors (e.g., human A1, A2A, and A3 adenosine receptors; α1 and α2 adrenoceptors; human β1–β3 adrenergic receptors; human D1, D2S, D3, D4.4, and D5 dopamine receptors; EGF and VEGF receptors; human M1–M5 muscarinic ACh receptors; human 5‐HT1A, 5‐HT2A, 5‐HT2B, 5‐HT2C, 5‐HT4e, 5‐HT5A, 5‐HT6, and 5‐HT7 receptors), ion channels (5‐HT3, Ca^2+, ATP‐dependent potassium channel [KATP], voltage‐dependent potassium channel [KV], small‐conductance calcium‐dependent potassium channel [SKCa], Na^+, and Cl^−), and transporters (adenosine, noradrenaline, dopamine, and 5‐HT). Follow‐up functional studies (with five concentrations and two replicates) were performed for 5‐HT2A receptors and noradrenaline transporter. Agonism and antagonism at h5‐HT2A receptors was explored in recombinant HEK 293 cells and intracellular calcium changes were detected using fluorimetry. Noradrenaline uptake was measured by carrying out scintillation counting of [^3H]noradrenaline incorporated into rat hypothalamus synaptosomes.

[3] = 4 nM up to 92 nM free plasma concentration

T1 sequence (Q9WTR4 1-597): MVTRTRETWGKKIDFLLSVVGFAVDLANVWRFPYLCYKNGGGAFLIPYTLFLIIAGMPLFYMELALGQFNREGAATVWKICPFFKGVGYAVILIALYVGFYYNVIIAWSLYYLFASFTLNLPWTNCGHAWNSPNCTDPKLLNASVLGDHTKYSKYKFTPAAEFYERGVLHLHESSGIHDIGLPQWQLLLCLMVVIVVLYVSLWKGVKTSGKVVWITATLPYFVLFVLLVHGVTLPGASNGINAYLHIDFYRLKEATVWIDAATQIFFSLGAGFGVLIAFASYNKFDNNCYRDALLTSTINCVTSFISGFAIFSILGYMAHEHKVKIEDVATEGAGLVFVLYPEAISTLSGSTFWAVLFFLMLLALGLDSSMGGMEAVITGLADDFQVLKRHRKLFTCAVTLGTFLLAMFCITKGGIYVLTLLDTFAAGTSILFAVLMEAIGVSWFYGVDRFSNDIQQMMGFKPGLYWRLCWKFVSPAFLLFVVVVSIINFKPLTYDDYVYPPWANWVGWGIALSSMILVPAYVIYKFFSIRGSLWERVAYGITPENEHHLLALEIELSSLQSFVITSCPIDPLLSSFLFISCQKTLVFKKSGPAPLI

Q: Which results are given for Nc1cccc(-c2ccc(CNc3ccc(F)cc3)o2)c1 [ORM‐11372]?
A: absolute maximum positive inotropic effect [1]: 44%; free plasma concentration achieving 25% positive inotropic effect [1]: 36 ± 1.4 nM; free plasma concentration at absolute maximum positive inotropic effect [1]: 351 ± 92 nM; free plasma concentration at maximum inotropic effect without any other effects [1]: 92 ± 8 nM; free plasma concentration at the 10±2% (ORM-11372) / 16±3% (dobutamine) inotropic effect [1]: 4 ± 0.3 nM; left ventricular relaxation [1, 3]: did not affect; systolic blood pressure [1, 3]: did not affect; improvement of relaxation (tendency) ([1]; 36 nM free plasma): 7.5±4.5%; effective free concentration range in rat plasma ([1]; Figure S20): 4 to 300 nM; maximum inotropic effect without any other effects ([1]; at 92±8 nM free plasma): 34±5%; positive inotropic effect ([1]; at free plasma concentration 4±0.3 nM (ORM-11372), 16±0.8 nM (dobutamine)): 10±2%; decrease in heart rate ([1]; free plasma concentrations higher than 240 nM): -7 to -12%; relaxation ([1]; high concentration (≥240 nM)): impaired relaxation; heart rate ([1]; up to 240 nM free plasma concentration): no effect; pIC50 [2]: 5.77
